One may read the Ki as the equilibrium dissociation constant of an inhibitor or competing ligand from its target.

The structures appear in SMILES notation.

The first test concerns the target T1, recombinant HIV-1 protease (Human immunodeficiency virus type 1 group M subtype B, UniProt P04585).
T1 construct: recombinant HIV-1 protease (final concentration 2.18 nM) purchased from Bachem Bioscience; purchased Bachem Bioscience
In words: Enzymatic fluorometric (FRET) assay for determining the inhibition constant (Ki) against HIV protease. The test is classed as biochemical. To be noted: Ki (nM). From the text: An Enzymatic assay for determining the inhibition constant (Ki) of synthetic compounds targeting the HIV protease may be carried out as follows: This is a fluorometric assay based on the cleavage by protease of a substrate carrying a donor group (EDANS) and an acceptor group (DABCYL) on each side of the cleavage site, interacting together through fluorescence resonance energy transfer (FRET). Cleavage of the substrate by protease stops energy exchange between the two groups, resulting in a time-dependent increase in fluorescence intensity that is linearly related to the extent of substrate hydrolysis.
The enzymatic assay is done at 31° C. in white 96-well fluorescence microplates, in a total volume of 200 μL per well. The apparatus used for analysis is a FL600 fluorescence microplate reader (Biotek Instruments). […] Excitation of the fluorophore is done at 340 nm and emission at 485 nm is recorded continuously during the reaction, allowing determination of the enzyme's initial velocity (v0). At the end of the 4 min incubation, the potential inhibitor at a defined concentration in a volume of 4 μL is added to the reaction, and fluorescence readings are taken for another 4 min, allowing determination of enzyme velocity (vi) in the presence of the inhibitory compound. Several concentrations of the putative inhibitors are tested in the assay. After calculation of v0 and vi, the inhibition constant (Ki) of the compound is determined using the equation of Henderson: [formula]
and [I]=inhibitor concentration, [S]=substrate concentration,
Km=Michaelis-Menten constant, Kiapp=apparent Ki
Graphs are traced and the Ki determined using GraphPad Prism software v. 3.0.
`Cc1ccc(S(=O)(=O)N(CC(C)C)[C@@H](CCCCNC(=O)OCC2c3ccccc3-c3ccccc32)C(=O)O)cc1` [Compound 67, Nα-Isobutyl-Nα-(4-methylbenzenesulfonyl)-Nε-(9-fluorenylmethoxycarbonyl)-L-lysine]: the Ki stood at 4.3 nM.

For the compound `O=C(NCCCC[C@H](NC(=O)OCC1c2ccccc2-c2ccccc21)C(=O)O)OCC1c2ccccc2-c2ccccc21` [Compound 71, Nα,Nε-di-(9-Fluorenylmethoxycarbonyl)-L-lysine], the Ki was 44800 nM.

Regarding `Cc1ccc(S(=O)(=O)N(CC2CC2)[C@@H](CCCCNC(=O)OCC2c3ccccc3-c3ccccc32)C(=O)O)cc1` [Compound 43, Nα-Cyclopropylmethyl-Nα-(4-methylbenzenesulfonyl)-Nε-(9-fluorenylmethoxycarbonyl)-L-lysine], the Ki turned out to be 3.9 nM.

Consider `CC(C)(C)OC(=O)N[C@@H](CCCCNC(=O)OCC1c2ccccc2-c2ccccc21)C(=O)O` [Compound 138], for which the inhibition constant Ki is > 200 nM.

Staying with this test, now noted: Ki (nM), fluorometric FRET assay, recombinant HIV-1 protease, pH 4.7, 31° C.
As for `CC(C)CN([C@@H](CCCCNC(=O)C=Cc1ccc([N+](=O)[O-])cc1)C(=O)O)S(=O)(=O)c1ccc([N+](=O)[O-])cc1` [Compound 111, Nα-Isobutyl-Nα-(4-nitrobenzenesulfonyl)-Nε-(4-nitrocinnamoyl)-L-lysine], the inhibition constant Ki worked out at 34.4 nM.

Staying with this test, now noted: fluorometric FRET assay, 31° C., pH 4.7, recombinant HIV-1 protease 2.18 nM, substrate 10 μM; read-out: Ki.
As for `COc1ccc(OC)c(CCC(=O)NCCCC[C@@H](C(=O)O)N(CC(C)C)S(=O)(=O)c2ccc(N)cc2)c1` [Compound 197, Nα-Isobutyl-Nα-(4-aminobenzenesulfonyl)-Nε-(2,5-dimethoxydihydrocinnamoyl)-L-lysine], the inhibition constant (Ki) stood at 20.7 nM.

Turning to `CC(C)CN([C@@H](CCCCNC(=O)COc1ccccc1)C(=O)O)S(=O)(=O)c1ccc(N)cc1` [Compound 192, Nα-Isobutyl-Nα-(4-aminobenzenesulfonyl)-Nε-phenoxyacetyl-L-lysine], the Ki came out at 8.2 nM.

The test is the same for the next values; noted with them: fluorometric FRET assay, recombinant HIV-1 protease, pH 4.7, 31° C.; read-out: Ki.
For `CC(C)c1cc(C(C)C)c(S(=O)(=O)NCCCC[C@H](NC(=O)OCC2c3ccccc3-c3ccccc32)C(=O)O)c(C(C)C)c1` [Compound 25, Nε-(2,4,6-Triisopropylbenzenesulfonyl)-Nα-(9-fluorenylmethoxycarbonyl)-L-lysine], the inhibition constant Ki is > 3100 nM.

For the compound `CC(C)CN(C(CCCCNC(=O)OCc1ccccc1)C(=O)OCc1ccccc1)S(=O)(=O)C=Cc1ccccc1` (stereo not drawn) [Compound 76], the Ki was > 1250 nM.

With `Nc1ccc(S(=O)(=O)NCCC[C@H](NC(=O)OCC2c3ccccc3-c3ccccc32)C(=O)O)cc1` [Compound 69, Nδ-(4-Aminobenzenesulfonyl)-Nα-(9-fluorenylmethoxycarbonyl)-L-ornithine], the Ki came out at 23800 nM.

As for `O=C(N[C@@H](CCCNS(=O)(=O)c1ccc([N+](=O)[O-])cc1)C(=O)O)OCC1c2ccccc2-c2ccccc21` [Compound 62, Nδ-(4-Nitrobenzenesulfonyl)-Nα-(9-fluorenylmethoxycarbonyl)-L-ornithine], the inhibition constant (Ki) was found to be 26200 nM.

As to `Cc1ccc(S(=O)(=O)N(CC(C)C)C(CCCCNC(=O)c2cc3ccccc3[nH]2)C(=O)O)cc1` (stereo not drawn) [Compound 88], the inhibition constant Ki was > 625 nM.

Turning to `COc1ccc(OC)c(C=CC(=O)NCCCC[C@@H](C(=O)O)N(CC(C)C)S(=O)(=O)c2ccc([N+](=O)[O-])cc2)c1` [Compound 190, Nα-Isobutyl-Nα-(4-nitrobenzenesulfonyl)-Nε-(2,5-dimethoxycinnamoyl)-L-lysine], the Ki is > 75 nM.

For the compound `O=C(N[C@@H](CCCCNS(=O)(=O)c1ccc(Cl)cc1)C(=O)O)OCC1c2ccccc2-c2ccccc21` [Compound 53, Nε-(4-Chlorobenzenesulfonyl)-Nα-(9-fluorenylmethoxycarbonyl)-L-lysine], the Ki is 4800 nM.

With `CC(C)CN([C@@H](CCCCNC(=O)OCC1c2ccccc2-c2ccccc21)C(=O)O)S(=O)(=O)c1cccc2ccccc12` [Compound 8, Nα-Isobutyl-Nα-(1-naphthalenesulfonyl)-Nε-(9-fluorenylmethoxycarbonyl)-L-lysine], the Ki was found to be 54.9 nM.

Turning to `COc1cccc(C=CC(=O)NCCCC[C@@H](C(=O)O)N(CC(C)C)S(=O)(=O)c2ccc([N+](=O)[O-])cc2)c1OC` [Compound 110, Nα-Isobutyl-Nα-(4-nitrobenzenesulfonyl)-Nε-(2,3-dimethoxycinnamoyl)-L-lysine], the inhibition constant Ki is > 300 nM.

In the case of `COc1ccccc1CCC(=O)NCCCC[C@@H](C(=O)O)N(CC(C)C)S(=O)(=O)c1ccc(N)cc1` [Compound 157, Nα-Isobutyl-Nα-(4-aminobenzenesulfonyl)-Nε-(2-methoxydihydrocinnamoyl)-L-lysine], the Ki stood at 18.9 nM.

As for `CC(C)CN([C@@H](CCCCNC(=O)/C=C/c1cccnc1)C(=O)O)S(=O)(=O)c1ccc([N+](=O)[O-])cc1` [Compound 164, Nα-Isobutyl-Nα-(4-nitrobenzenesulfonyl)-Nε-(trans-3-(3-pyridyl)acryloyl)-L-lysine], the Ki was > 300 nM.

Consider `Cc1cc(C)c(S(=O)(=O)NCCCC[C@H](NC(=O)OCC2c3ccccc3-c3ccccc32)C(=O)O)c(C)c1` [Compound 27, Nε-(2,4,6-Trimethylbenzenesulfonyl)-Nα-(9-fluorenylmethoxycarbonyl)-L-lysine], for which the Ki is > 50000 nM.

Turning to `COc1cccc(CCC(=O)NCCCC[C@@H](C(=O)O)N(CC(C)C)S(=O)(=O)c2ccc(N)cc2)c1OC` [Compound 119, Nα-Isobutyl-Nα-(4-aminobenzenesulfonyl)-Nε-(2,3-dimethoxydihydrocinnamoyl)-L-lysine], the inhibition constant Ki came to 6.2 nM.

Take `CC(C)CN(CCC[C@H](NC(=O)OCC1c2ccccc2-c2ccccc21)C(=O)O)S(=O)(=O)c1ccc(Br)cc1` [Compound 41, Nα-(9-Fluorenylmethoxycarbonyl)-Nδ-isobutyl-Nδ-(4-bromobenzenesulfonyl)-L-ornithine]: the inhibitory constant (Ki) was > 50000 nM.

For the compound `Cc1ccc(S(=O)(=O)N(CC(C)C)C(CCCCNC(=O)OCC2c3ccccc3-c3ccccc32)C(N)=O)cc1` [Compound 125, (2R,2S)-N-Isobutyl-N-(4-methylbenzenesulfonylamino)-6-(9-fluorenylmethoxycarboxylamino)-1-hexanamide], the inhibition constant (Ki) came to 107 nM.

As to `O=C(O)[C@H](CCCNS(=O)(=O)c1ccc(Br)cc1)NS(=O)(=O)c1ccc(Br)cc1` [Compound 57, Nα,Nδ-di-(4-Bromobenzenesulfonyl)-L-ornithine], the Ki was determined as 42400 nM.

Take `Nc1ccccc1S(=O)(=O)N[C@@H](CCCCNC(=O)OCC1c2ccccc2-c2ccccc21)C(=O)O` [Compound 105, Nα-(2-Aminobenzenesulfonyl)-Nε-(9-fluorenylmethoxycarbonyl)-L-lysine]: the inhibition constant (Ki) stood at 16000 nM.

As for `O=C(N[C@@H](CCCCNS(=O)(=O)Cc1ccccc1)C(=O)O)OCC1c2ccccc2-c2ccccc21` [Compound 33, Nε-Phenylmethylsulfonyl-Nα-(9-fluorenylmethoxycarbonyl)-L-lysine], the Ki came out at 20000 nM.

Consider `O=C(O)[C@H](CCCN(Cc1ccc(F)cc1)S(=O)(=O)c1ccc(Br)cc1)NS(=O)(=O)c1ccc(Br)cc1` [Compound 59, Nα,Nδ-di-(4-Bromobenzenesulfonyl)-Nδ-(4-fluorobenzyl)-L-ornithine], for which the inhibition constant Ki was > 34900 nM.

In the case of `CC(C)CN([C@@H](CCCCNC(=O)C=Cc1ccc2c(c1)OCO2)C(=O)O)S(=O)(=O)c1ccc([N+](=O)[O-])cc1` [Compound 163, Nα-Isobutyl-Nα-(4-nitrobenzenesulfonyl)-Nε-(3,4-methylenedioxycinnamoyl)-L-lysine], the Ki was > 300 nM.

`Cc1ccc(S(=O)(=O)N(CC(C)C)[C@@H](CCCCNC(=O)OCc2ccccc2)C(=O)OCc2ccccc2)cc1` [Compound 75, Nα-isobutyl-Nα-(4-methylbenzenesulfonyl)-Nε-benzyloxycarbonyl-L-lysine Benzyl Ester]: the inhibitory constant (Ki) is > 1250 nM.

In the case of `O=C(NCCCC[C@H](NS(=O)(=O)c1ccc(Cl)cc1)C(=O)O)OCC1c2ccccc2-c2ccccc21` [Compound 72, Nα-(4-Chlorobenzenesulfonyl)-Nε-(9-fluorenylmethoxycarbonyl)-L-lysine], the Ki came out at 2380 nM.

Turning to `CC(C)CN([C@@H](CCCCNC(=O)CCc1ccccc1N)C(=O)O)S(=O)(=O)c1ccc(N)cc1` [Compound 122, Nα-Isobutyl-Nα-(4-aminobenzenesulfonyl)-Nε-(2-aminodihydrocinnamoyl)-L-lysine], the Ki was > 300 nM.

`O=C(NCCCC[C@H](NS(=O)(=O)c1ccc([N+](=O)[O-])cc1)C(=O)O)OCC1c2ccccc2-c2ccccc21` [Compound 103, Nα-(4-Nitrobenzenesulfonyl)-Nε-(9-fluorenylmethoxycarbonyl)-L-lysine]: the Ki amounted to 3300 nM.

For `CC(C)CN([C@@H](CCCCNC(=O)CCc1c[nH]c2ccccc12)C(=O)O)S(=O)(=O)c1ccc([N+](=O)[O-])cc1` [Compound 95, Nα-Isobutyl-Nα-(4-nitrobenzenesulfonyl)-Nε-(3-indolepropionyl)-L-lysine], the Ki was 33.4 nM.

Regarding `Cc1ccc(S(=O)(=O)N(Cc2ccccc2)[C@@H](CCCCNC(=O)OCC2c3ccccc3-c3ccccc32)C(=O)O)cc1` [Compound 40, Nα-Benzyl-Nα-(4-methylbenzenesulfonyl)-Nε-(9-fluorenylmethoxycarbonyl)-L-lysine], the inhibition constant Ki is 19.6 nM.

The record behind these values is patent US6455587B1 (priority 2000, dated 2002).
